The source of these data is patent EP4647082A1, “PHARMACEUTICAL COMPOSITION COMPRISING A CGRP RECEPTOR ANTAGONIST FOR THE TREATMENT OF ACUTE MIGRAINE” (NUVIE BIO, Inc., priority 2024, dated 2025).

Each structure is given as a SMILES string. Bridge positions count the residues as written; N and C are the ends. Square brackets hold non-standard residues; d marks the D form. Peptide text beside a SMILES is read from it. * marks the point of attachment. Phe(2-CONH2) = NC(=O)c1ccccc1C[C@H](N)C(=O)O; Orn(iPr) = CC(C)NCCC[C@H](N)C(=O)O; Oxazole2carbonyl = O=C(c1ncco1)*; 3Pal = N[C@@H](Cc1cccnc1)C(=O)O

The series in a line: Degradation rates of 1 mg/mL solutions of AXN-001 at different pH and temperatures over 30 days. The series is classed as physicochemical. As for the experimental part: To achieve the higher pH values, an isotonic 10 mM phosphate buffer was used.
The degradation rates were then determined for 1 mg/mL solutions of AXN-001 at pH 3.5, 4.5, 5.5, 6.5, and 7.5, when kept at 2-8°C, 25°C, 40°C, and 60°C for 30 days. Table 1: Degradation rates
Degradation rates at 2-8° C were not determined ("n.d.") because degradation could not be measured at thirty days (with the exception of pH 7.5).

For `CC(C)NCCC[C@@H]1NC(=O)[C@@H](NC(=O)[C@H](Cc2ccccc2C(N)=O)NC(=O)[C@H](NC(=O)c2ncco2)C(C)C)CSSC[C@@H](C(=O)N[C@@H](Cc2cccnc2)C(N)=O)NC(=O)[C@H](Cc2ccccc2)NC(=O)[C@@H]2CCCN2C(=O)CNC(=O)[C@H](C(C)C)NC(=O)[C@H](CC(=O)O)NC1=O` [AXN-001, Oxazole-2-carbonyl-D-Val-Phe(2-Cbm)-c(Cys-Orn (iPr)-Asp-Val-Gly-Pro-Phe-Cys)-3Pal-NH2] (Oxazole2carbonyl-[dV][Phe(2-CONH2)]C[Orn(iPr)]DVGPFC[3Pal]-NH2; disulfide 3-10), the “Degradation Rates” value worked out at 0.058 %/day (pH 3.5, 25°C); 0.20 %/day (pH 3.5, 40°C); 1.50 %/day (pH 3.5, 60°C); 0.019 %/day (pH 4.5, 25°C); 0.12 %/day (pH 4.5, 40°C); 1.19 %/day (pH 4.5, 60°C). The “Degradation Rates” value is 0.007 %/day (pH 5.5, 25°C); 0.23 %/day (pH 5.5, 40°C); 3.18 %/day (pH 5.5, 60°C); 0.039 %/day (pH 6.5, 25°C); 0.54 %/day (pH 6.5, 40°C); 3.47 %/day (pH 6.5, 60°C). In addition, the “Degradation Rates” value runs as follows: (pH 7.5, 2-8°C) 0.02 %/day; (pH 7.5, 25°C) 0.605 %/day; (pH 7.5, 40°C) 1.62 %/day; (pH 7.5, 60°C) 5.55 %/day.
